Measurements from US20250249013A1, “COMBINATION METABOLIC-EPIGENETIC TREATMENT FOR EARLY LUNG CANCER” (THE REGENTS OF THE UNIVERSITY OF CALIFORNIA, priority 2022, published 2025).

How the values were obtained:
A549 cells = assay: αKG rescue in low glucose, western blot and RT-PCR; type: cell-based, human; details: A549, 2 hours in low glucose, αKG
Description: (§1) Human lung cancer A549 (CCL-185) and NCI-H358 (CRL-5807) cells lines were purchased from American Type Culture Collection (ATCC, Manassas, VA). Cells were maintained in culture according to manufacturer protocol using Roswell Park Memorial Institute (RPMI) 1640 medium (Corning, Cat. #10-040CV) supplemented with 10% FBS and 5% 1× Pen-Strep and kept in 37° C. and 5% of CO2. Murine 2953A cell line was established in our lab from a KP lung tumor by tissue dissociation. This cell line was maintained in culture in Dulbecco's modified Eagle Medium (DMEM) medium (Corning, Cat. #10-017CV) with 5% FBS and 5% 1× Pen-Strep.
(§2) All experiments in cell lines were performed in biological triplicate. Cells were seeded at same confluence and grown for 5 days (and for some experiments overnight or up to 9 days or 30 days, as indicated in the figures and text) in different concentration of glucose: high (20 mM), low (1 mM) and for some experiments medium (5 mM), as indicated. We used mediums with glutamine and without glucose: RPMI (Corning Cat. #10-043CV) for A549 and NCI-H358 cells, DMEM (ThermoScientific Cat. #11566025) for 2953A cells, supplemented with 10% FBS, 5% of 1× Pen-Strep and complemented with D-Glucose to the desired final concentration, as indicated in the figures.
(§3) All αKG rescue experiments were conducted using 10 mM alpha-ketoglutarate (α-KG; Sigma) and α-Mannitol (Sigma) as osmotic control.
(§4) For total protein extraction, cells were harvested, washed twice with ice-cold PBS-EDTA (0.5 mm EDTA), lysed using RIPA buffer (50 mM Tris-HCl pH 7.6, 150 mM NaCl, 0.1% SDS, 0.5% C24H39NaO4, 1% NP-40, 2 mm EDTA, 50 mm NaF) for 15 min on ice and centrifuged at 13,000 rpm for 30 min at +4° C. The resulting protein extracts were quantified using BCA protein assay followed by analysis by SDS-PAGE and Western blotting.
(§5) Histones was extracted from A549, NCI-H358 and 2953A cell lines using the Histone extraction kit (Abcam) according to manufacturer instructions.
(§6) SDS-PAGE and Western blotting analyses were performed using standard protocols. For antibodies information, see Reagents and Tools Table. Western blot images were detected by iBright Imaging Systems (Thermo Fisher Scientific). The protein detected was normalized to Actin or H3 total antibodies, this last in case of histonic extract. Each immunodetection derived from the same membrane was performed with the same exposure times according to the manufacture's antibody guidelines and was cropped only for presentation purposes; this is indicated by a dotted line.
(§7) Total RNA was extracted from A549, NCI-H358 and 2953A by using TRI Reagent Solution (Applied Biosystem), according to manufacturer instruction. RNA concertation was assayed by Nanodrop 3000 spectrophotometer (Thermo Fisher Scientific). Then, 1 μg of RNA was treated with DNase I (Thermo Fisher Scientific) and used for cDNA preparation.
(§8) cDNA was prepared using 1 μg of RNA with SuperScript IV Reverse Transcriptase (Invitrogen). SYBR green-based RT-PCR kit (Biorad) was performed using human and mouse primers (See Table EV11). mRNA levels were normalized to GAPDH (ΔCt=Ctgene of interest-Ct GAPDH) and presented as relative mRNA expression (ΔΔCt=2-(ΔCtsample-ΔCtcontrol)). All primers were designed by NCBI Primer-BLAST and purchased from Integrated DNA Technologies.

NCI-H358 cells = assay: αKG rescue in low glucose, western blot and RT-PCR; type: cell-based, human; details: NCI-H358, 2 hours in low glucose, αKG
Description: as §1, §2, §3, §4, §5, §6, §7, §8

[1] = test system: long non-coding RNA HIFAL; assay: Expression of HIFAL in low glucose with αKG; type: cell-based; details: cell line not stated (Fig. EV5F-G)
Description: as §3, §8

MCF7 = assay: αKG rescue of FoxA2 in low glucose, western blot; type: cell-based, human; details: MCF7 breast cancer cells, low glucose 5 days
Description: (§9) For the glutamine deprivation experiment, A549 and NCI-H358 cell lines were also seeded and grown up to 5 days in DMEM without glutamine and glucose (Corning Cat. #17-207CV) and complemented with L-glutamine (GlutaMAX CTS, Gibco) to a final concentration of either 6 mM (high glutamine) or 2 mM (low glutamine) and D-Glucose to a final concentration of either 10 mM (high glucose) or 1 mM (low glucose). Finally, breast cancer (MCF7) and pancreatic cancer (PANC1) cell lines were purchased from ATCC and were seeded and grown up to 5 days in RPM11640 complemented with D-Glucose to a final concentration of either 20 mM or 1 mM.
as §3, §6

PANC1 = assay: αKG rescue of FoxA2 in low glucose, western blot; type: cell-based, human; details: PANC1 pancreas cancer cells, low glucose 5 days
Description: as §9, §3, §6

KP mice carrying LUADs [2] = assay: KP mice treated with empagliflozin for 6 weeks: lung histology (H&E) and IHC; type: in vivo, mouse
Description: (§10) Lung tumors were induced by intranasal administration of Adeno-Cre (purchased from University of Iowa Viral Vector Core) as previously described (Scafoglio et al., 2018), or by transthoracic injection of Adeno-Cre in KPluc mice. All treatment trials were performed 2 weeks after tumor induction, and the results of biological duplicates were pooled for statistical analysis. In all trials, mice were assigned to therapeutic groups so that there were no significant differences in baseline tumor burden, age, sex, or weight among the different groups.
In the trial for assessment of tumor differentiation by immunohistochemistry (FIG. 1A-E, 6L-M, and EV1A-C) lung tumors were induced by intranasal administration of Adeno-Cre. After tumor induction, mice (n=11 for placebo and 13 for empagliflozin group) were treated with either placebo (DMSO 5%, PEG 30%, Tween80 10%) or empagliflozin (10 mg/Kg/d by oral gavage) for 6 weeks and then sacrificed for lung collection and fixation in formalin.
For the GEMMs, the mouse lungs were collected and inflated with 10% formalin in phosphate-buffered saline. After 24 hours, formalin was replaced to 70% ethanol. All tissues were paraffin-embedded and sliced into […] sections in the Translational Pathology Core Laboratory (TPCL) at UCLA.
For IHC staining, the slides were deparaffinized by overnight incubation at 65° C., followed by rehydration by serial passages in xylenes (three washes of 5 min in 100% xylenes) and decreasing concentrations of ethanol (two washes in 100% ethanol, two washes in 95%, one wash in 80%, one wash in 70%, and one wash in water). Antigen retrieval was performed for 23 min in AR6 (pH 6.0) buffer.
Blocking was performed with 5% goat serum for 1 hour at room temperature, followed by incubation with primary antibodies overnight at 4° C. Incubation with biotin-labeled secondary antibody was performed at room temperature for 1 hour, followed by incubation with avidin-biotin peroxidase complex and ImmPACT 3,3′-diaminobenzidine (DAB). Counterstain was performed with Harris' haematoxylin diluted 1:5 in water, followed by […] step and mounting slide. After the staining, digital images of the slides were obtained with an Aperio ScanScope slide scanner (Leica Biosystems). The quantification was performed using the QPath software. Briefly, regions of interests were drawn blindly in each slide to include each tumor present in a whole-lung section, followed by cell detection and quantification of the DAB signal using a constant threshold for all samples in the same experiment. Staining intensity in each cell was classified as negative (0), weak (1), median (2), or strong (3). The results were expressed as H score.
QuPath (Bankhead et al, 2017) was used for signal quantification in IHC staining. It was expressed as H score. Kaplan-Meier curves were performed with Kaplan-Meir Plotter tool (Gyorffy, 2021), using the lung cancer section. For the selected genes only, the best probe was used. All dataset available were used as cohort. For Kaplan-Meier plot performed using multiple genes, the option “use mean expression of selected genes” was set.

KP mice carrying LUADs [3] = assay: KP mice treated with empagliflozin for 4 weeks: RT-PCR on lung tumors; type: in vivo, mouse; details: vs placebo
Description: as §10
In the trial for assessment of tumor differentiation by RT-PCR (FIGS. 1F and 6C) mice (n=3) received intranasal AdenoCre and treatment with either placebo (0.5% hypromellose-methyl cellulose) or empagliflozin (10 mg/Kg/d by oral gavage) for 4 weeks, followed by tumor collection and RNA extraction. RT-PCR was performed in technical triplicates, yielding a total of 9 experimental points per group.
as §7, §8

KP mice carrying LUADs [4] = assay: KP mice treated with empagliflozin, ex vivo BLI, then tail vein re-injection of sorted tumor cells in syngeneic mice; design: species or system mouse
Description: For our studies on the investigation of cell aggressiveness due to the glucose deprivation, we used syngeneic FVB mice. Two experiments were performed, in biological duplicate.
In the second experiment (FIG. 2G-J), KP mice injected transthoracically with AdenoCre were treated for 3 weeks with either placebo (n=3) or empagliflozin (n=3), and sacrificed for lung collection. Tumors were identified in the murine lungs by ex vivo bioluminescence and dissociated. Tumor single cells were resuspended in cold PBS followed by magnetic beads sorting (Miltenyi Biotec) to isolate the Epcam-positive epithelial cells. Finally, sorted tumor cells were injected by tail vein inoculation (1,000,000 cells/mouse) into syngeneic mice (n=6 per group). Tumor burden was measured by bioluminescence until 13 weeks after inoculation.

KP mice carrying LUADs [5] = assay: ELISA for H3K27me3 in KP tumors after empagliflozin; type: in vivo, mouse; details: transthoracic AdenoCre, empagliflozin for 1 week, vs placebo
Description: For the measurement of in vivo HeK27 trimethylation (FIG. 3B), mice (n=4 per group) received transthoracic adenoCre and were treated for 3 weeks with either placebo (0.5% hypromellose-methyl cellulose) or empagliflozin (10 mg/Kg/d by oral gavage) followed by lung collection and histone extraction for ELISA assay.
The levels of trimethylation on H3K27me3 in tumors treated with empaglifozin were detected by ELISA kits (Active Motif) according to the manufacturer's instructions. The experiment was carried out with 4 replicates for each group. After tumor collecting, histone extraction was performed.
We used H3K27me3 and H3 total antibodies for plate coating. The absorbance was detected by Varioskan Lux (Thermo Fisher Scientific). The H3K27me3 levels were normalized to H3 total and presented as optical densitometry (O. D.) 450 nm of a ratio of H3K27me3/H3.

KP mice carrying LUADs [6] = assay: Combination treatment trial in KP mice, tumor burden by bioluminescence imaging; type: in vivo, mouse; details: 6 weeks from week 2, empagliflozin 10 mg/kg/d, tazemetostat 125 mg/kg/bid, oral gavage
Description: as §10
In the combination treatment trial (FIG. 3F-G), mice received the first BLI measurement two weeks post-AdenoCre administration for measurement of the baseline tumor burden. Four therapeutic groups were established as follows: (i) Placebo (n=11), receiving oral gavage of vehicle (DMSO 5%, PEG 30%, Tween80 10%); (ii) SGLT2 inhibitor Empaglifozin (10 mg/Kg/d, n=13); (iii) EZH2 inhibitor Tazemetostat (125 mg/Kg/bid, n=10); (iiii) Empaglifozin and Tazemetosat (n=19). Each group received bi-daily administration by oral gavage.

[7] = empagliflozin 10 mg/kg/d, 6 weeks, vs placebo
[8] = KP tumors week 6, empagliflozin 4 weeks

## O=C(O)CCC(=O)C(=O)O [αKG, alpha-ketoglutarate]
A549 cells
  activation of HIF1α after short-time glucose deprivation, western blot: rescued
NCI-H358 cells
  activation of HIF1α after short-time glucose deprivation, western blot: rescued
[1]
  activation of HIFAL in low glucose: completely rescued
MCF7
  low glucose-induced FoxA2 down-regulation, western blot: rescued
PANC1
  low glucose-induced FoxA2 down-regulation, western blot: rescued

## OC[C@H]1O[C@@H](c2ccc(Cl)c(Cc3ccc(O[C@H]4CCOC4)cc3)c2)[C@H](O)[C@@H](O)[C@@H]1O [empagliflozin]
KP mice carrying LUADs [2]; empagliflozin 10 mg/kg/d oral gavage, week 2 to week 8 post-AdenoCre, vs placebo
  differentiation of lung lesions, visual inspection of H&E staining: more poorly differentiated
KP mice carrying LUADs [2]; empagliflozin 10 mg/kg/d, 6 weeks, completely absent from placebo tumors
  clear cell component of tumors: some of the tumors in the empagliflozin group had a clear cell component
KP mice carrying LUADs [2]; [7]
  E-cadherin IHC signal (H score): significant down-regulation
  FoxA2 IHC signal (H score): significant reduction
  Ttf-1 IHC signal (H score): significant reduction
  micropapillary component of murine tumors, pathological quantification: increasing
  solid component of murine tumors, pathological quantification: significantly reducing
KP mice carrying LUADs [3]; KP murine tumors, empagliflozin 4 weeks
  HIF1α RNA levels, RT-PCR: significant up-regulation
KP mice carrying LUADs [3]; KP tumors collected week 6 post-induction, empagliflozin 10 mg/kg/d 4 weeks
  surfactant protein C (SpC) expression, qPCR: significant reduction
KP mice carrying LUADs [3]; [8]
  FoxA2 expression, qPCR: significant reduction
  FoxJ1 expression (ciliated cell marker), qPCR: reduced expression
  HmgA2 expression, qPCR: increase
  Pdpn expression (type I alveolar cell marker), qPCR: reduced expression
  Scgb3A2 expression (Clara cell marker), qPCR: reduced expression
  Ttf1 expression, qPCR: significant reduction
KP mice carrying LUADs [4]; KP mice, empagliflozin week 2 to week 5 after transthoracic AdenoCre, vs placebo
  tumor burden, ex vivo BLI: significantly reduced
KP mice carrying LUADs [4]; same number of sorted epithelial cells by tail vein, BLI at week 13, vs placebo group
  tumors formed after re-injection of treated tumor cells in syngeneic mice, BLI: formed larger tumors than the placebo group
KP mice carrying LUADs [5]
  tri-methylation on H3K27 (H3K27me3 over total H3), ELISA: significant increase
KP mice carrying LUADs [6]
  tumor burden by bioluminescence imaging, compared with placebo: significantly reduced
